Holding throughout (assay type): physicochemical
Data set [1] in a line: Measurement of particle diameter distribution (laser diffraction, dry measurement, Mastersizer 2000). The conditions noted are these: for Particle Diameter Distribution D50 / Particle Diameter Distribution D90: dry measurement, volume basis. As to the method:
In the present invention, D50 and D90 are indices for defining particle diameter distribution. Particle diameter distribution is usually called particle size distribution. Particles are divided into groups along with their size with appropriate intervals, and weight (volume) or particle number of the particles belonging to each group is measured to obtain the particle number (frequency) of each group. Taking the particle number (frequency) along the ordinate and taking the particle diameter along the abscissa, a particle diameter distribution is shown as a histogram, frequency curve, cumulative curve or the like. In the present invention, frequency was calculated based on volume. In the particle diameter distribution obtained in such a manner, D50 means the particle diameter at the point where the volume which is cumulatively measured from smaller particles reaches 50%, that is, the point where the cumulative frequency of the volume distribution reaches 50%. D90 means the particle diameter at the point where the volume which is cumulatively measured from smaller particles reaches 90%, that is, the point where the cumulative frequency of the volume distribution reaches 90%. Cumulative frequency (%) of particles which have a smaller diameter than a specified particle diameter can also be calculated from such a distribution chart.
Measurement of the particle diameter distribution of the crystalline finely-ground particles according to the present invention may be carried out with a commercially available apparatus using laser diffraction/scattering based on Mie Theory. For example, the measurement is carried out using a commercially available apparatus such as Malvern (registered trademark) Mastersizer Laser Diffraction Analyzer (Malvern Instruments Ltd). This analyzer irradiates He—Ne laser beam and blue light-emitting diode on particles to obtain a light scattering pattern which occurs on a detector by the irradiation, and then analyzes the light scattering pattern according to Mie Theory to determine the particle diameter distribution. […] An example of the measurement condition is as follows, which was used in Evaluation 1 of the present invention.
• Apparatus: Laser diffraction-based particle size distribution analyzer Mastersizer 2000 (Malvern) • Dry measurement unit: Scircco 2000 • Refractive Index of Samples: Real part; 1.810, Imaginary part; 0 • Time for Sample Measurement: 1 second • Time for Background Measurement: 5 seconds • Pressure: 2.0 bar • Feed Rate: 40% • Analysis Model: Single narrow mode • Calculation Sensitivity Enhanced • Particle Shape Irregular • Analysis Range: 0.020 to 2000 μm • Basis of Size Distribution Measurement: Volume
The particle diameter distribution of the subject compound was measured by dry measurement using a particle size distribution analyzer (Mastersizer 2000, manufactured by Malvern). D50 and D90 were calculated as an index of the particle diameter distribution.

A short description of data set [2]: Check of crystalline state and measurement of degree of crystallinity by powder X-ray diffraction. The conditions noted are these: for Degree of Crystallinity: powder X-ray diffraction, Xc=(Sc/(Sc+Sa))×100. As to the method: The degree of crystallinity of the crystalline finely-ground particles according to the present invention is calculated from the integrated intensity ratio of crystalline peaks and amorphous halo which are extracted from an X-ray diffraction pattern obtained by powder X-ray diffraction measurement.
The powder X-ray diffraction measurement may be carried out by using, for example, a powder X-ray diffractometer (2200/RINT Ultima+PC) manufactured by Rigaku as described in Evaluation 2 of the present invention. In preparation of a measurement sample, 100 mg of a sample material is filled in a glass sample plate (0.2 mm depth) in non-destructive condition, and the surface of the sample material is leveled out using a glass plate to obtain a measurement sample. An example of the measurement condition is as follows, which was used in the present invention.
The degree of crystallinity may be calculated by a known analysis method using diffraction patterns of a sample material and sample plate alone (without a sample material) and a difference pattern thereof. For example, using a powder X-ray diffraction pattern analysis software JADE5.0 produced by MDI, which is a commercially available analysis software, a degree of crystallinity may be calculated as follows.
• (1) A difference pattern of the diffraction patterns of a sample material and sample plate alone is smoothed (Savitzky-Goray filter: 19 points). • (2) For a display area of the difference pattern, the x-axis: diffraction angle (2θ) is set between 2 deg and 90 deg, and the y-axis: diffraction intensity (Counts) is set between 0 and 500. • (3) Points are set at diffraction angles of […], 65 and 90 deg, respectively, and a straight line parallel to the x-axis is drawn such that the line is contact with the difference diffraction pattern at a range of 65 deg to 90 deg. The area below the line is determined as a background. • (4) The background is subtracted. • (5) An integrated intensity at a range of 4 deg to 60 deg is calculated (which corresponds to a sum of the integrated intensity of crystalline peaks and an amorphous halo: Sc+Sa) • (6) Points are set at diffraction angles of 2, 7, 18, 26, 30, 35, 59, 65 and 90 deg, respectively. At 2, 65 and 90 deg, the diffraction intensity is set as 0, and at 7, 18, 26, 30, 35 and 59 deg, an approximation by a cubic spline is made such that the approximation formula is in contact with the difference pattern obtained after the subtraction of the background, thereby estimating an amorphous halo. • (7) The amorphous halo is subtracted. • (8) The integrated intensity at a range of 4 deg to 60 deg is calculated (which corresponds to the integrated intensity of the crystalline peaks: Sc). • (9) A degree of crystallinity is calculated according to the following equation. Xc=(Sc/(Sc+Sa))×100 Equation • Xc: Degree of crystallinity (%) • Sc: Integrated intensity of the crystalline peaks • Sa: Integrated intensity of the amorphous halo
For check of the crystalline state and measurement of the degree of crystallinity, powder X-ray diffraction measurement was carried out using a powder X-ray diffraction analyzer (2200/RINT Ultima+PC) manufactured by Rigaku.

Data set [3] can be described thus: Storage stability (1): content of pharmaceutical active substance by HPLC, 60° C./75% RH opened. As to the method:
For comparison of storage stability, the ground pharmaceutical active substance of Example 6 (crystallinity 88%) which was ground with a jet mill pulverizer Co-jet (α-mkII: manufactured by Seishin Enterprise) and that of Comparative Example 7 (crystallinity 73%) which was ground with a mortar and pestle were left under the storage condition of 60° C./75% RH opened, and the content of the pharmaceutical active substance was analyzed by HPLC 0.5 and 2 months after the start of the storage (Table 6).

Where [4] appears, read: 60° C./75% RH opened, 0.5-Month Later.
Where [5] appears, read: 60° C./75% RH opened, 2-Month Later.

The structures appear in SMILES notation. Values joined by “and” are separate entries in the source; they are usually repeats but may differ in a detail not shown here. Equal entries are not always repeated.

11 compounds from patent US8198446B2, “Crystalline micropowder particles” (Toray Industries, Inc., priority 2007, dated 2012) can be followed below.

Consider `O=C1c2ccccc2C(=O)N1[C@@H]1CC[C@@]2(O)[C@H]3Cc4ccc(O)c5c4[C@@]2(CCN3CC2CC2)[C@H]1O5` [Comparative Example 1, N-(17-cyclopropylmethyl-4,5α-epoxy-3,14-dihydroxy-morphinan-6β-yl)-phthalimide], for which, in data set [1], the “Cumulative Frequency of Volume Distribution Which Is Occupied by Particles with Volume-Based Particle Diameter 15 (μm) or Less” value (“Cumulative Frequency” for short) is listed as 23.3%, the “Particle Diameter Distribution D50” value is 32.4 μm and the “Particle Diameter Distribution D90” value amounted to 110 μm. For the same compound, the “Degree of Crystallinity” value in data set [2] came to 97%.

With `O=C1c2ccccc2C(=O)N1[C@@H]1CC[C@@]2(O)[C@H]3Cc4ccc(O)c5c4[C@@]2(CCN3CC2CC2)[C@H]1O5` [Comparative Example 3, N-(17-cyclopropylmethyl-4,5α-epoxy-3,14-dihydroxy-morphinan-6β-yl)-phthalimide], the “crystalline state by powder X-ray diffraction” value in data set [2] (Eight hours after grinding with ball mill) was “converted into an amorphous material”.

Regarding `O=C1c2ccccc2C(=O)N1[C@@H]1CC[C@@]2(O)[C@H]3Cc4ccc(O)c5c4[C@@]2(CCN3CC2CC2)[C@H]1O5` [Comparative Example 7, N-(17-cyclopropylmethyl-4,5α-epoxy-3,14-dihydroxy-morphinan-6β-yl)-phthalimide], the “Content of Pharmaceutical Active Substance by HPLC” value in data set [3] (setting [4]) is on record as 98.85%; in data set [3] (setting [5]) it was 98.51%; in data set [3] (At Start of Storage) it was 99.30%. Further, the “Degree of Decrease Based on Start of Storage” value in data set [3] (setting [4]) stood at 1.64; in data set [3] (setting [5]) it was 2.13.

As for `O=C1c2ccccc2C(=O)N1[C@@H]1CC[C@@]2(O)[C@H]3Cc4ccc(O)c5c4[C@@]2(CCN3CC2CC2)[C@H]1O5` [Example 1, N-(17-cyclopropylmethyl-4,5α-epoxy-3,14-dihydroxy-morphinan-6β-yl)-phthalimide], in data set [1], the “Particle Diameter Distribution D50” value worked out at 4.25 μm and the “Particle Diameter Distribution D90” value came to 9.14 μm. Further, in data set [2], the “Degree of Crystallinity” value is given as 89%.

As to `O=C1c2ccccc2C(=O)N1[C@@H]1CC[C@@]2(O)[C@H]3Cc4ccc(O)c5c4[C@@]2(CCN3CC2CC2)[C@H]1O5` [Example 3, N-(17-cyclopropylmethyl-4,5α-epoxy-3,14-dihydroxy-morphinan-6β-yl)-phthalimide], in data set [1], the “Cumulative Frequency” value was found to be 70.8%; the “Particle Diameter Distribution D50” value was 9.89 μm; the “Particle Diameter Distribution D90” value was 29.4 μm and 28.4 μm. Moreover, the “Degree of Crystallinity” value in data set [2] was found to be 94%.

As for `O=C1c2ccccc2C(=O)N1[C@@H]1CC[C@@]2(O)[C@H]3Cc4ccc(O)c5c4[C@@]2(CCN3CC2CC2)[C@H]1O5` [Example 4, N-(17-cyclopropylmethyl-4,5α-epoxy-3,14-dihydroxy-morphinan-6β-yl)-phthalimide], in data set [1], the “Cumulative Frequency” value amounted to 51.7%, the “Particle Diameter Distribution D50” value turned out to be 14.6 μm and the “Particle Diameter Distribution D90” value was 47.8 μm. Moreover, in data set [2], the “Degree of Crystallinity” value stood at 96%.

With `O=C1c2ccccc2C(=O)N1[C@@H]1CC[C@@]2(O)[C@H]3Cc4ccc(O)c5c4[C@@]2(CCN3CC2CC2)[C@H]1O5` [Example 5, N-(17-cyclopropylmethyl-4,5α-epoxy-3,14-dihydroxy-morphinan-6β-yl)-phthalimide], in data set [1], the “Particle Diameter Distribution D50” value is reported as 7.83 μm and the “Particle Diameter Distribution D90” value came out at 16.0 μm. In addition, in data set [2], the “Degree of Crystallinity” value came out at 90%.

As for `O=C1c2ccccc2C(=O)N1[C@@H]1CC[C@@]2(O)[C@H]3Cc4ccc(O)c5c4[C@@]2(CCN3CC2CC2)[C@H]1O5` [Example 6, N-(17-cyclopropylmethyl-4,5α-epoxy-3,14-dihydroxy-morphinan-6β-yl)-phthalimide], in data set [1], the “Particle Diameter Distribution D50” value is 5.13 μm. In addition, the “Particle Diameter Distribution D90” value in data set [1] was determined as 11.2 μm. The “Content of Pharmaceutical Active Substance by HPLC” value in data set [3] (setting [4]) was 99.15%; in data set [3] (setting [5]), 99.09%; in data set [3] (At Start of Storage), 99.39%. Further, the “Degree of Decrease Based on Start of Storage” value in data set [3] (setting [4]) is 1.39; in data set [3] (setting [5]), 1.49.

For `O=C1c2ccccc2C(=O)N1[C@@H]1CC[C@@]2(O)[C@H]3Cc4ccc(O)c5c4[C@@]2(CCN3CC2CC2)[C@H]1O5` [Example 7, N-(17-cyclopropylmethyl-4,5α-epoxy-3,14-dihydroxy-morphinan-6β-yl)-phthalimide], in data set [1], the “Particle Diameter Distribution D50” value is recorded as 5.67 μm and the “Particle Diameter Distribution D90” value is on record as 16.1 μm. In addition, in data set [2], the “Degree of Crystallinity” value was 87%.

Consider `O=C1c2ccccc2C(=O)N1[C@@H]1CC[C@@]2(O)[C@H]3Cc4ccc(O)c5c4[C@@]2(CCN3CC2CC2)[C@H]1O5` [Example 8, N-(17-cyclopropylmethyl-4,5α-epoxy-3,14-dihydroxy-morphinan-6β-yl)-phthalimide], for which, in data set [1], the “Particle Diameter Distribution D50” value stood at 11.8 μm and the “Particle Diameter Distribution D90” value was found to be 35.3 μm. Further, the “Degree of Crystallinity” value in data set [2] was 92%.

Turning to `O=C1c2ccccc2C(=O)N1[C@@H]1CC[C@@]2(O)[C@H]3Cc4ccc(O)c5c4[C@@]2(CCN3CC2CC2)[C@H]1O5` [Example 9, N-(17-cyclopropylmethyl-4,5α-epoxy-3,14-dihydroxy-morphinan-6β-yl)-phthalimide], in data set [1], the “Particle Diameter Distribution D50” value is 11.5 μm and the “Particle Diameter Distribution D90” value is 30.9 μm. Besides, the “Degree of Crystallinity” value in data set [2] was found to be 89%.
